Laboratory results from patent US10202388B2, “Fused-ring compounds, pharmaceutical composition and uses thereof” (SHANGHAI DE NOVO PHARMATECH CO., LTD., priority 2015, dated 2019).

How the values were obtained:
recombinant TDO2 = recombinant TDO2 (Homo sapiens (Human), UniProt P48775); experiment: TDO2 enzymatic assay (UV absorption at 321 nm); format: biochemical; settings: 50 nM TDO2, 200 μM tryptophan, 75 min
Experimental: The TDO2 enzymatic assay was performed by UV absorption using a recombinant TDO2 and L-Tryptophan substrate. The UV absorption signal at 321 nm is correlated with the amount of N-formylkynurenine reaction product of TDO2. The compounds were diluted in 10% DMSO and 5 μL of the dilution was added to a 100 μL reaction so that the final concentration of DMSO is 0.5% in all of reactions. All of the reactions were conducted at room temperature. The 100 μL reaction mixture in TDO2 Assay Buffer contains 50 nM TDO2, the indicated amount of the inhibitor, 200 μM tryptophan, and the coupled reaction components. The reaction mixture incubated for 75 min prior to reading the UV absorption signal. For the negative control (blank), 5 μl of the assay buffer was added instead of the TDO2.
(§1) Absorption signals were measured using a Tecan Infinite M1000 plate reader. Binding experiments were performed in duplicate at each concentration. The percent activity in the presence of each compound was calculated according to the following equation: % activity=[(A−Ab)/(At−Ab)]×100, where A=the absorption signal in the presence of the compound, Ab=the absorption signal of blank, At=the absorption signal in the absence of the compound. […] The IC50 was calculated using non-linear regression in Graph Pad Prism® 4.

colon cancer MC38 cells = experiment: Subcutaneous MC38 mouse colon cancer syngeneic model in C57BL/6 mice; format: in vivo; settings: single agent, s.c. MC38 tumors in female C57BL/6 mice, FIG. 1
Experimental: Female mice (C57BL/6, 6-8 week old) were purchased from Shanghai Laboratory Animal Center, Chinese Academy of Sciences, Shanghai, China. Mice were housed under pathogen-free conditions with autoclaved rodent chow and water available ad libitum. Each mouse was inoculated s.c. with colon cancer MC38 cells in 0.1 mL PBS over the right lower flank. When the tumor volume reached 40 mm^3, mice were randomized based on initial tumor volume measurements and treated with either vehicle or compound 23A-3. Tumor volumes were measured with electronic digital caliper and calculated using the formula length (mm)×width (mm)^2/2 and expressed in mm^3. Student's t-test was used to evaluate the statistical significance of observed differences.

HeLa cell IDO1 = HeLa cell IDO1 (Homo sapiens (Human), UniProt P14902); experiment: HeLa cell based IDO1 inhibition assay (kynurenine readout, IFN-γ induced); settings: HeLa cells
HeLa cell IDO1, sequence (P14902 whole entry): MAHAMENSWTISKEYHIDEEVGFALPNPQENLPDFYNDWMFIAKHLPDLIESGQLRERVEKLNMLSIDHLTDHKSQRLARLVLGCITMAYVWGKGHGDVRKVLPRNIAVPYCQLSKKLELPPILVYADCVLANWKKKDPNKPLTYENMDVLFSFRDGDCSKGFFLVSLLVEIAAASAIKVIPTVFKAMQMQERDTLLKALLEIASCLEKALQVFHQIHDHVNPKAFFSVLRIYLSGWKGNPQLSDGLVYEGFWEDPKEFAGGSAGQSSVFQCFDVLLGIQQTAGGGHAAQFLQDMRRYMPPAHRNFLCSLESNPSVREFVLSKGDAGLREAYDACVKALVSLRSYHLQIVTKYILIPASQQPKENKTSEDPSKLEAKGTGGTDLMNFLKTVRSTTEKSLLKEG
Experimental: HeLa cell line was purchased from ATCC, cultured in MEM/EBSS medium supplemented with 10% FBS, penn-step (100,000 U/L), non-essential amino acid (0.1 Mm), sodium pyruvate (1.0 Mm). Cells were cultured at 37° C., 95% humidity and 5% CO2. […] The detailed experimental method is as follow:
25,000 HeLa cells were placed on 96-well plates. Each well contained 100 μl culture medium, subsequently IFN-γ and test compounds at specific concentrations (concentration range between 10 μM and 1 Nm, so that the final volume of culture medium was 200 μL) were added and IFN-γ was used to induce IDO1 expression. After incubation, 140 μL supernatant was transferred to 96-well plates. After adding 6.1 N TCA (10 μL), the plates were continuously incubated at 50° C. for 30 min, to hydrolyze N-formylkynurenine produced by IDO to kynurenine. The reaction solution was then centrifuged at 2500 rpm for 10 min to remove precipitate. 100 μL/well supernatant was then transferred to another 96-well plate. 100 μL of 2% (w/v) 4-N,N-dimethyl aminobenzaldehyde acetic acid solution was added and incubated at room temperature for 10 min. The yellow color derived from kynurenine was recorded by measuring absorbance at 480 nm using a microplate reader (TECAN Infinite M1000 Pro).

Human recombinant IDO1 = Human recombinant IDO1 (Homo sapiens (Human), UniProt P14902); experiment: IDO1 enzymatic assay (UV absorption at 321 nm); format: biochemical; settings: human recombinant IDO1, 80 min incubation, room temperature; read-out: hIDO1 IC50
Human recombinant IDO1, sequence (P14902 whole entry): as above
Experimental: The detailed experimental method is as follow:
The compounds described in this disclosure were dissolved in 10% DMSO to predefined concentration. All of the reactions were conducted at room temperature in this disclosure. Human recombinant IDO1 (BPS Bioscience) was added so that its concentration was 200 nm in the reaction buffer solution (200 μL). […] 10 μL test compound solution was added into the above reaction solution (200 μL), so that the final concentration of DMSO in all reaction wells was 0.5%. % concentration was volume %. After 80 min incubation of the reaction solution, the UV absorbance was measured using TECAN Infinite M1000 plate reader. For the negative control (blank), 10 μl of the assay buffer was added instead of the IDO1
All reagents (excluding human recombinant IDO1) were purchased from Sigma Aldrich, MO, USA.
as §1, with “The” for “Absorption signals were measured using a Tecan Infinite M1000 plate reader. Binding experiments were performed in duplicate at each concentration. The”

recombinant TDO2, sequence (P48775 whole entry, species assumed): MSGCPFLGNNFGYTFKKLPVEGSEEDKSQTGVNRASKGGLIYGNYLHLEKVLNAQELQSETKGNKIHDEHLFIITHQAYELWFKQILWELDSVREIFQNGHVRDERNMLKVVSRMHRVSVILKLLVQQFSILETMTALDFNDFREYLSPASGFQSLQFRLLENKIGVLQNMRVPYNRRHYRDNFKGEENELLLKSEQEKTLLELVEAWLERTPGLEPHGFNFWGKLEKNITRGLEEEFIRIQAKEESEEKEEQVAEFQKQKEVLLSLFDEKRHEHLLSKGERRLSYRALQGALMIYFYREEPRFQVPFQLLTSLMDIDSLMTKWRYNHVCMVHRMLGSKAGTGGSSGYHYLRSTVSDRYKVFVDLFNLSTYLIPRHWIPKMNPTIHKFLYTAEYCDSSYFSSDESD

Which results are given for OC1C2CC3CC1CC([C@@H](O)CC1c4c(F)cccc4-c4cncn41)(C3)C2 (stereo partly shown) [Compound 23A-3]?
IC50 (recombinant TDO2): < 500 nM; tumor growth inhibition (mean tumor volume versus dosing days) (colon cancer MC38 cells): significant tumor growth inhibition effect; IC50 (HeLa cell IDO1): < 100 nM; IC50 (Human recombinant IDO1): < 100 nM
